The NIST ThermoML archive (doi:10.1007/s10765-014-1730-1)

Conditions: Vibrating tube method; for specific volume: Gas; for mass density: Liquid

F/C=C\C(F)(F)F [(Z)-1,3,3,3-tetrafluoro-1-propene]
Conditions | mass density [kg/m3] | specific volume [m3/kg]
328.15 K, 202.5 kPa | – | 0.111
328.15 K, 209.8 kPa | – | 0.107
328.15 K, 232.5 kPa | – | 0.095
328.15 K, 370.9 kPa | – | 0.057
330.15 K, 287.2 kPa | – | 0.076
333.15 K, 90.7 kPa | – | 0.26
333.15 K, 126.2 kPa | – | 0.185
333.15 K, 206.1 kPa | – | 0.111
333.15 K, 213.5 kPa | – | 0.107
333.15 K, 236.7 kPa | – | 0.096
333.15 K, 378.4 kPa | – | 0.057
333.15 K, 30992 kPa | 1237.9 | –
333.15 K, 31993 kPa | 1240.4 | –
333.16 K, 3769 kPa | 1141.2 | –
333.16 K, 4787 kPa | 1146.4 | –
333.16 K, 5795 kPa | 1151.4 | –
333.16 K, 6804 kPa | 1156.2 | –
333.16 K, 7816 kPa | 1160.8 | –
333.16 K, 8825 kPa | 1165.2 | –
333.16 K, 9828 kPa | 1169.5 | –
333.16 K, 10837 kPa | 1173.6 | –
333.16 K, 11848 kPa | 1177.7 | –
333.16 K, 12859 kPa | 1181.6 | –
333.16 K, 13868 kPa | 1185.4 | –
333.16 K, 15876 kPa | 1192.7 | –
333.16 K, 16881 kPa | 1196.2 | –
333.16 K, 17896 kPa | 1199.7 | –
333.16 K, 18911 kPa | 1203 | –
333.16 K, 19925 kPa | 1206.3 | –
333.16 K, 20935 kPa | 1209.5 | –
333.16 K, 21937 kPa | 1212.6 | –
333.16 K, 23957 kPa | 1218.6 | –
333.16 K, 24963 kPa | 1221.5 | –
333.16 K, 25970 kPa | 1224.4 | –
333.16 K, 26975 kPa | 1227.2 | –
333.16 K, 27976 kPa | 1229.9 | –
333.16 K, 28983 kPa | 1232.6 | –
333.16 K, 29987 kPa | 1235.2 | –
333.16 K, 32999 kPa | 1243 | –
333.16 K, 34003 kPa | 1245.5 | –
333.17 K, 574 kPa | 1123.1 | –
333.17 K, 754 kPa | 1124.2 | –
333.17 K, 1756 kPa | 1130.2 | –
333.17 K, 2756 kPa | 1135.8 | –
333.17 K, 14875 kPa | 1189.1 | –
333.17 K, 22950 kPa | 1215.6 | –
335.15 K, 292.6 kPa | – | 0.077
338.15 K, 92.1 kPa | – | 0.26
338.15 K, 128.2 kPa | – | 0.185
338.15 K, 209.7 kPa | – | 0.111
338.15 K, 217.2 kPa | – | 0.107
338.15 K, 240.9 kPa | – | 0.096
338.15 K, 385.9 kPa | – | 0.057
340.15 K, 298 kPa | – | 0.077
343.14 K, 680 kPa | 1090.7 | –
343.14 K, 761 kPa | 1091.4 | –
343.14 K, 1766 kPa | 1098.6 | –
343.14 K, 2771 kPa | 1105.3 | –
343.14 K, 3798 kPa | 1111.8 | –
343.14 K, 4828 kPa | 1117.9 | –
343.14 K, 5833 kPa | 1123.5 | –
343.14 K, 6839 kPa | 1129 | –
343.14 K, 7846 kPa | 1134.2 | –
343.14 K, 8850 kPa | 1139.2 | –
343.14 K, 9856 kPa | 1144 | –
343.14 K, 10867 kPa | 1148.6 | –
343.14 K, 11874 kPa | 1153.1 | –
343.14 K, 12884 kPa | 1157.5 | –
343.14 K, 13894 kPa | 1161.7 | –
343.14 K, 14898 kPa | 1165.7 | –
343.14 K, 15909 kPa | 1169.7 | –
343.14 K, 16918 kPa | 1173.5 | –
343.14 K, 17921 kPa | 1177.2 | –
343.14 K, 18924 kPa | 1180.9 | –
343.14 K, 19929 kPa | 1184.4 | –
343.14 K, 20931 kPa | 1187.8 | –
343.14 K, 21941 kPa | 1191.3 | –
343.14 K, 22943 kPa | 1194.6 | –
343.14 K, 24955 kPa | 1201 | –
343.14 K, 25963 kPa | 1204 | –
343.14 K, 26970 kPa | 1207.1 | –
343.14 K, 27977 kPa | 1210 | –
343.14 K, 28983 kPa | 1212.9 | –
343.14 K, 29990 kPa | 1215.8 | –
343.14 K, 30998 kPa | 1218.7 | –
343.14 K, 32004 kPa | 1221.4 | –
343.14 K, 34007 kPa | 1226.7 | –
343.15 K, 93.6 kPa | – | 0.26
343.15 K, 130.3 kPa | – | 0.185
343.15 K, 213.3 kPa | – | 0.111
343.15 K, 220.9 kPa | – | 0.107
343.15 K, 245.1 kPa | – | 0.096
343.15 K, 393.2 kPa | – | 0.057
343.15 K, 23946 kPa | 1197.8 | –
343.15 K, 33006 kPa | 1224.1 | –
345.15 K, 303.3 kPa | – | 0.077
348.15 K, 95 kPa | – | 0.26
348.15 K, 132.4 kPa | – | 0.185
348.15 K, 216.8 kPa | – | 0.111
348.15 K, 224.6 kPa | – | 0.107
348.15 K, 249.2 kPa | – | 0.096
348.15 K, 400.6 kPa | – | 0.057
350.15 K, 308.6 kPa | – | 0.077
353.14 K, 33995 kPa | 1208 | –
353.15 K, 96.4 kPa | – | 0.26
353.15 K, 134.4 kPa | – | 0.185
353.15 K, 220.3 kPa | – | 0.112
353.15 K, 228.3 kPa | – | 0.107
353.15 K, 253.3 kPa | – | 0.096
353.15 K, 407.8 kPa | – | 0.057
353.15 K, 3719 kPa | 1080.1 | –
353.15 K, 14840 kPa | 1141.7 | –
353.15 K, 15847 kPa | 1146.1 | –
353.15 K, 16854 kPa | 1150.3 | –
353.15 K, 18882 kPa | 1158.4 | –
353.15 K, 19886 kPa | 1162.3 | –
353.15 K, 20899 kPa | 1166.1 | –
353.15 K, 22916 kPa | 1173.4 | –
353.15 K, 24928 kPa | 1180.3 | –
353.15 K, 25940 kPa | 1183.7 | –
353.15 K, 26948 kPa | 1186.9 | –
353.15 K, 27955 kPa | 1190.1 | –
353.15 K, 28958 kPa | 1193.2 | –
353.15 K, 29961 kPa | 1196.3 | –
353.15 K, 30974 kPa | 1199.3 | –
353.15 K, 31977 kPa | 1202.3 | –
353.15 K, 32988 kPa | 1205.2 | –
353.16 K, 926 kPa | 1057.5 | –
353.16 K, 1696 kPa | 1064.4 | –
353.16 K, 2698 kPa | 1072.4 | –
353.16 K, 4742 kPa | 1087.3 | –
353.16 K, 5750 kPa | 1093.9 | –
353.16 K, 6761 kPa | 1100.2 | –
353.16 K, 7770 kPa | 1106.2 | –
353.16 K, 8771 kPa | 1111.9 | –
353.16 K, 9787 kPa | 1117.4 | –
353.16 K, 10798 kPa | 1122.6 | –
353.16 K, 11809 kPa | 1127.7 | –
353.16 K, 12819 kPa | 1132.5 | –
353.16 K, 13828 kPa | 1137.2 | –
353.16 K, 17868 kPa | 1154.4 | –
353.16 K, 21904 kPa | 1169.8 | –
353.16 K, 23917 kPa | 1176.9 | –
355.15 K, 313.8 kPa | – | 0.077
358.15 K, 97.9 kPa | – | 0.26
358.15 K, 136.4 kPa | – | 0.186
358.15 K, 223.9 kPa | – | 0.112
358.15 K, 232 kPa | – | 0.107
358.15 K, 257.4 kPa | – | 0.096
358.15 K, 415 kPa | – | 0.057
360.15 K, 319.1 kPa | – | 0.077
363.13 K, 14901 kPa | 1116.7 | –
363.14 K, 1456 kPa | 1023.9 | –
363.14 K, 1771 kPa | 1027.2 | –
363.14 K, 2776 kPa | 1037.2 | –
363.14 K, 3803 kPa | 1046.4 | –
363.14 K, 4829 kPa | 1055 | –
363.14 K, 5830 kPa | 1062.7 | –
363.14 K, 6835 kPa | 1070 | –
363.14 K, 7849 kPa | 1076.9 | –
363.14 K, 8855 kPa | 1083.4 | –
363.14 K, 9860 kPa | 1089.5 | –
363.14 K, 10872 kPa | 1095.5 | –
363.14 K, 11879 kPa | 1101.1 | –
363.14 K, 12892 kPa | 1106.5 | –
363.14 K, 13892 kPa | 1111.7 | –
363.14 K, 15912 kPa | 1121.5 | –
363.14 K, 16917 kPa | 1126.2 | –
363.14 K, 17931 kPa | 1130.7 | –
363.14 K, 18936 kPa | 1135 | –
363.14 K, 19943 kPa | 1139.3 | –
363.14 K, 20949 kPa | 1143.4 | –
363.14 K, 21954 kPa | 1147.4 | –
363.14 K, 22956 kPa | 1151.2 | –
363.14 K, 23961 kPa | 1155 | –
363.14 K, 25973 kPa | 1162.3 | –
363.14 K, 26975 kPa | 1165.8 | –
363.14 K, 27982 kPa | 1169.3 | –
363.14 K, 29991 kPa | 1175.9 | –
363.14 K, 31998 kPa | 1182.3 | –
363.15 K, 99.3 kPa | – | 0.26
363.15 K, 138.4 kPa | – | 0.186
363.15 K, 227.4 kPa | – | 0.112
363.15 K, 235.7 kPa | – | 0.107
363.15 K, 261.4 kPa | – | 0.096
363.15 K, 422.2 kPa | – | 0.057
363.15 K, 24969 kPa | 1158.7 | –
363.15 K, 28984 kPa | 1172.6 | –
363.15 K, 30992 kPa | 1179.1 | –
363.15 K, 33009 kPa | 1185.4 | –
363.15 K, 34010 kPa | 1188.4 | –
365.15 K, 324.3 kPa | – | 0.077
368.15 K, 100.7 kPa | – | 0.26
368.15 K, 140.5 kPa | – | 0.186
368.15 K, 231 kPa | – | 0.112
368.15 K, 239.3 kPa | – | 0.107
368.15 K, 265.5 kPa | – | 0.096
368.15 K, 429.3 kPa | – | 0.057
370.15 K, 329.4 kPa | – | 0.077
373.15 K, 102.2 kPa | – | 0.26
373.15 K, 142.5 kPa | – | 0.186
373.15 K, 234.6 kPa | – | 0.112
373.15 K, 242.9 kPa | – | 0.107
373.15 K, 269.6 kPa | – | 0.096
373.15 K, 436.3 kPa | – | 0.057
375.15 K, 334.6 kPa | – | 0.077
